Measurements: US8623909B2, “Prophylactic/therapeutic agents for lifestyle-related diseases” (priority 2008, dated 2014)
Marks after values point to notes of the source that are not given here.

Experiments:
Assay type in all cases: in vivo, rat
IRS-2 mRNA = IRS-2 mRNA level in liver of ORX rats; details: for IRS-2 mRNA/GAPDH mRNA level in rat liver: solvent 4.8, sham 1.0
Text: (§1) After housing the animals, the animals were anesthetized with ether, and underwent bilateral orchiectomy (orchiectomized rats: ORX) or a sham treatment. After awaking from the anesthesia, the animals were assigned to test groups of 3 to 5 animals each. […] After 21 days, the rats were sacrificed by exsanguination from the abdominal artery, the ventral prostates and anal levator muscle were excised and weighed followed by immersing in RNAlater (Nacalai Tesque) for extraction of RNA. In addition, soft tissue was removed from the right femur, and immersed in 75% ethanol followed by storage for subsequent measurement of the bone mineral density. Moreover, liver and visceral fat tissue were collected and immersed in RNAlater for RNA extraction.
(§2) Total RNA in various tissues of the ORX rats was isolated using the RNeasy Mini Kit or RNeasy Fibrous Tissue Mini Kit (Qiagen). 1 μg of this total RNA was subjected to reverse transcription using the QuantiaTect Reverse Transcription Kit (Qiagen). Next, cDNA was subjected to real-time PCR analysis using LightCycler (Roche Diagnostics) and each of the transcription products was quantified. Furthermore, PCR was carried out in 20 μl of a reaction mixture under the following conditions using SYBR Premix Ex Taq (Takara Biotechnology): 50 cycles consisting of denaturation for 5 seconds at 95° C., annealing for 20 seconds at 60° C. and elongation for 25 seconds at 72° C. In addition, glyceraldehyde-3-phosphate dehydrogenase (GAPDH) mRNA was simultaneously amplified as an internal standard, and the real-time PCR value of each transcription product were calculated as a relative value based on GAPDH.
(§3) In addition, mRNA levels of insulin receptor substrate 2 (IRS-2) in the liver were also measured.

UCP-1 mRNA = UCP-1 mRNA level in visceral fat of ORX rats; details: for UCP-1 mRNA/GAPDH mRNA level in rat visceral fat: solvent 1.0, sham 1.0
Procedure: (§4) 11-week-old, male Sprague-Dawley (SD) rats (320 to 340 g, purchased from Charles River Japan) were housed for 1 week in a room maintained at a light-dark cycle of 12 hours per day and controlled at a set temperature and humidity while allowing free access to a commercially available standard rodent diet and water.
(§5) After housing the animals, the animals were anesthetized with ether, and underwent bilateral orchiectomy (orchiectomized rats: ORX) or a sham treatment. After awaking from the anesthesia, the animals were assigned to test groups of 3 to 5 animals each. Starting on the day after surgery, the animals were subcutaneously injected once a day with an injection solution of the test compound (prepared by dissolving the test compound in a small amount of DMSO and diluting with olive oil for animal testing (consisting of 95% olive oil and 5% DMSO)) at the rate of 0.1 ml/100 g of body weight. After 21 days, the rats were sacrificed by exsanguination from the abdominal artery, the ventral prostates and anal levator muscle were excised and weighed followed by immersing in RNAlater (Nacalai Tesque) for extraction of RNA. In addition, soft tissue was removed from the right femur, and immersed in 75% ethanol followed by storage for subsequent measurement of the bone mineral density. Moreover, liver and visceral fat tissue were collected and immersed in RNAlater for RNA extraction.
as §2
Thus, UCP-1 mRNA levels in rat visceral fat were also measured for the purpose of confirmation.

PPARδ mRNA = PPARδ mRNA in anal levator muscle of ORX rats; details: for PPARδ mRNA/GAPDH mRNA in anal levator muscle: solvent 1.0, sham 0.5; for Effect on PPARδ mRNA expression in anal levator muscle (in words): dihydrotestosterone 1 and 10 mg/kg, compound of formula (Ia) 10 mg/kg
Procedure: as §4, §5, §2
In addition, expression levels of peroxisome proliferator activating factor receptor-delta (PPARδ) mRNA in anal levator muscle were also measured. This is because this nuclear receptor has been indicated to be related to β-oxidation of fatty acids and energy consumption in skeletal muscle (Proc. Natl. Acad. Sci. USA, 100, 15924-15929). Furthermore, measurements were carried out using a similar method as that previously described.

ORX rats [1] = assay: Plasma insulin level in ORX rats; details: for Effect on insulin levels (in words): 1 and 10 mg/Kg; for Plasma insulin concentration: solvent 1.0, sham 1.6
Text: as §1
The inventors of the present invention measured total plasma adiponectin levels in ORX rats treated in the aforementioned section (4)-1). Plasma insulin levels were also measured simultaneously.

ORX rats [2] = assay: Plasma FSH concentration in ORX rats; details: for Effect on FSH levels (in words): dose of 1 or 10 mg/kg; for Plasma FSH concentration: solvent 44.1, sham 12.1
Text: as §1
(§6) Characteristics of the effect of compounds on the pituitary gland were investigated by measuring plasma concentrations of LH and FSH in ORX rats treated in the aforementioned section (4)-1).

ORX rats [3] = assay: Plasma LH concentration in ORX rats; details: for Effect on LH levels (in words): 1 and 10 mg/Kg; for Plasma LH concentration: solvent 10.3, sham 1.7
Text: as §1, §6

ORX rats [4] = assay: Plasma triglyceride level in ORX rats; details: for Effect on triglyceride levels (in words): 1 and 10 mg/Kg; for Plasma triglyceride concentration: solvent 130.7, sham 236.5
Text: as §1
Plasma triglyceride and cholesterol levels were measured to characterize the metabolic profiles of ORX rats treated in the aforementioned section (4)-1).

SREBP-1c mRNA = SREBP-1c mRNA level in liver and visceral fat of ORX rats
Text: as §1, §2, §3

ORX rats [5] = assay: Anal levator muscle weight in ORX rats (anabolic effect); details: for Anal levator muscle weight: 21 days, solvent 41.6, sham 73.1; for Change in anal levator muscle weight (in words): dihydrotestosterone 1 and 10 mg/kg, compound of formula (Ia) 10 mg/kg
Procedure: as §4, §5
The anabolic effect of compounds was studied by using as indicators changes in anal levator muscle weight and bone mineral density (BMD) of the femur and vertebra in the ORX rats treated in the aforementioned section (4)-1).
Anal levator muscle is a typical skeletal muscle localized around the rat rectum, and is considered to be sensitive to male steroid hormone. Although the anal levator muscle is considerably smaller in castrated rats as compared with normal male rats, its weight is well known to be able to be restored to normal by administration of androgen (J. Pharmacol. Exp. Ther., 91, 38-44). The results of measuring the weights of the anal levator muscle in the ORX rats obtained in section (4)-1) are shown in the following Table 7.

CPT-1 mRNA = CPT-1 mRNA level in liver and visceral fat of ORX rats
Text: as §1, §2, §3

[6] = liver, 1 mg/Kg, solvent 0.7, sham 1.0
[7] = liver, 10 mg/Kg, solvent 0.7, sham 1.0
[8] = visceral fat, 1 mg/Kg, solvent 1.0, sham 1.0
[9] = visceral fat, 10 mg/Kg, solvent 1.0, sham 1.0
[10] = liver, 1 mg/Kg, solvent 1.4, sham 1.0
[11] = liver, 10 mg/Kg, solvent 1.4, sham 1.0
[12] = visceral fat, 1 mg/Kg, solvent 1.7, sham 1.0
[13] = visceral fat, 10 mg/Kg, solvent 1.7, sham 1.0

| SMILES | Effect on liver IRS-2 mRNA level (in words) (IRS-2 mRNA) | IRS-2 mRNA/GAPDH mRNA level in rat liver (IRS-2 mRNA; 1 mg/Kg) | IRS-2 mRNA/GAPDH mRNA level in rat liver (IRS-2 mRNA; 10 mg/Kg) | Effect on visceral fat UCP-1 mRNA levels (in words) (UCP-1 mRNA) | UCP-1 mRNA/GAPDH mRNA level in rat visceral fat (UCP-1 mRNA; 1 mg/Kg) | UCP-1 mRNA/GAPDH mRNA level in rat visceral fat (UCP-1 mRNA; 10 mg/Kg) | PPARδ mRNA/GAPDH mRNA in anal levator muscle (PPARδ mRNA; 1 mg/Kg) | PPARδ mRNA/GAPDH mRNA in anal levator muscle (PPARδ mRNA; 10 mg/Kg) | Effect on PPARδ mRNA expression in anal levator muscle (in words) (PPARδ mRNA) | Effect on insulin levels (in words) (ORX rats [1]) | Effect on FSH levels (in words) (ORX rats [2]) | Effect on LH levels (in words) (ORX rats [3]) | Effect on triglyceride levels (in words) (ORX rats [4]) | SREBP-1c mRNA/GAPDH mRNA level (SREBP-1c mRNA; [6]) | SREBP-1c mRNA/GAPDH mRNA level (SREBP-1c mRNA; [7]) | SREBP-1c mRNA/GAPDH mRNA level (SREBP-1c mRNA; [8]) | SREBP-1c mRNA/GAPDH mRNA level (SREBP-1c mRNA; [9]) | Anal levator muscle weight (ORX rats [5]; 1 mg/Kg s.c. once a day) | Anal levator muscle weight (ORX rats [5]; 10 mg/Kg s.c. once a day) | Change in anal levator muscle weight (in words) (ORX rats [5]) | further results |
| --- | --- | --- | --- | --- | --- | --- | --- | --- | --- | --- | --- | --- | --- | --- | --- | --- | --- | --- | --- | --- | --- |
| C[C@]12CCC(=O)C[C@@H]1CC[C@@H]1[C@@H]2CC[C@]2(C)[C@@H](O)CC[C@@H]12 [Dihydrotestosterone, 5α-dihydrotestosterone, reference compound] | decreased | 5.1 | 0.8 | had hardly any effect on UCP-1 mRNA levels | 0.8 | 0.9 | 0.9 | 0.5 | inhibited this expression dose-dependently | increased the insulin levels | inhibited to levels observed in the untreated control group | inhibited LH levels | raised triglyceride levels | 3.4 | 3.2 | 1.8 | 2.2 | 93.8^## mg/100 g body weight | 120.6**^,## mg/100 g body weight | weights increased beyond those in the case of the sham treated rats | CPT-1 mRNA/GAPDH mRNA level (CPT-1 mRNA; [10]): 1.3; CPT-1 mRNA/GAPDH mRNA level (CPT-1 mRNA; [11]): 0.4; CPT-1 mRNA/GAPDH mRNA level (CPT-1 mRNA; [12]): 1.7; CPT-1 mRNA/GAPDH mRNA level (CPT-1 mRNA; [13]): 0.8 |
| CC(=O)[C@H]1CCC2C3CCc4c(C)cccc4C3CC[C@@]21C (stereo partly shown) [Compound of formula (Ia)] | increased | 10.6** | 8.8* | this increase was not significant | 1.7 | 1.5 | 0.9 | 1.7* | enhanced this expression | this activity was milder | did not have any effect on FSH | did not inhibit LH levels, but rather increased LH levels dose-dependently | lowered triglyceride levels considerably | 0.8 | 0.6 | 0.8 | 0.5 | 59.1^ mg/100 g body weight | 66.2* mg/100 g body weight | increased significantly to a similar level to that observed in the sham treatment group | Plasma insulin concentration (ORX rats [1]; 1 mg/Kg): 1.5 µg/mL; Plasma insulin concentration (ORX rats [1]; 10 mg/Kg): 2.9 µg/mL; Plasma FSH concentration (ORX rats [2]; 1 mg/Kg): 48.7* ng/mL; Plasma FSH concentration (ORX rats [2]; 10 mg/Kg): 46.3* ng/mL; Plasma LH concentration (ORX rats [3]; 1 mg/Kg): 12.6** ng/mL; Plasma LH concentration (ORX rats [3]; 10 mg/Kg): 19.9*^,## ng/mL; Plasma triglyceride concentration (ORX rats [4]; 1 mg/Kg): 41.3** mg/dL; Plasma triglyceride concentration (ORX rats [4]; 10 mg/Kg): 39.3** mg/dL; SREBP-1c mRNA levels (in words) (SREBP-1c mRNA; liver and visceral fat): lower in both tissues; CPT-1 mRNA levels (in words) (CPT-1 mRNA; liver and visceral fat): higher in comparison with dihydrotestosterone; CPT-1 mRNA/GAPDH mRNA level (CPT-1 mRNA; [10]): 3.2**^,#; CPT-1 mRNA/GAPDH mRNA level (CPT-1 mRNA; [11]): 4.2*; CPT-1 mRNA/GAPDH mRNA level (CPT-1 mRNA; [12]): 2.0; CPT-1 mRNA/GAPDH mRNA level (CPT-1 mRNA; [13]): 2.6 |
